Results on two molecules are retold here after EP0465913B1, “Diaminotrifluoromethylpyrimidine derivatives, process for their production and phospholipase A2 inhibitor containing them” (ISHIHARA SANGYO KAISHA, LTD., priority 1990, dated 1992).

Data set [1] deals with T1, Porcine pancreatic phospholipase A2 (Sus scrofa, UniProt P00592).
T1 construct: purchased Boehringer Mannheim·Yamanouchi K.K. 161454·122416
In words: Phospholipase A2 inhibitory activity, method A (egg yolk lecithin substrate). To be noted: 1,000 ppm, 37°C for 30 minutes, read-out: % inhibition of PLA2 (1,000 ppm). Format: biochemical. The method, boiled down:
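Egg yolk lecithin dispersed with glycerine, Triton X-100 and CaCl2 in 50 mM Tris-HCl pH7.5 was hydrolysed by enzyme (20 ng/ml solution) with compound, 37°C, 30 min. Released free fatty acid measured by ACS-ACOD method at 540 nm; apparent enzyme level read from a standard curve to give percent inhibition.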

In data set [2] the target is T1, Porcine pancreatic phospholipase A2. As to the kind of experiment: Phospholipase A2 inhibitory activity, method B (L-α-dipalmitoylphosphatidylcholine substrate). The format is biochemical. To be noted: 1,000 ppm, 37°C for 30 minutes, read-out: % inhibition of PLA2 (1,000 ppm). In a few lines:
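Substrate: L-α-dipalmitoylphosphatidylcholine/sodium cholate mixed micelles in 250 mM NaCl, 100 mM Tris-HCl pH 8.0. Enzyme (10 µg/ml stock) incubated with compound in buffer containing CaCl2 and BSA, 30 min at 37 °C. Released free fatty acid measured by ACS-ACOD at 540 nm; % inhibition derived from apparent enzyme concentration read off a standard curve.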

In data set [3] the test system is carrageenin edema. In words: Inhibitory activity on carrageenin edema. The format is in vivo, Wistar male rats. The conditions noted are these: rat, paw swelling volume three hours after carrageenin. The method, boiled down: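 Male Wistar rats (about 100 g, 5 per group) dosed orally at 200, 100, 50 or 25 mg/kg as 2% Tween 80 suspension or aqueous salt solution, 1 h before subplantar injection of 0.1 ml 1% λ-carrageenin. Paw swelling measured at 3 h; % inhibition versus control group mean swelling.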

A short description of data set [4]: Acute toxicity, intravenous injection (LD50). Format: in vivo. To be noted: mouse, in vivo, iv, ddy male mice, sodium salt, mortality over one week. How it is done:
Administration route: Intravenous injection
Using ddy male mice (body weight: 25 - 30 g), each test group consisted of 5 mice. A test compound was dissolved in the form of a sodium salt in a physiological saline or in a 5% glucose aqueous solution, and intravenously injected in an amount of 0.1 ml/10 g body weight. After the injection, the mortality rate was obtained over one week, and the median lethal dose LD50 (mg/kg) was determined.

Data set [5] deals with experimental acute pancreatitis model. As to the kind of experiment: Effects against acute pancreatitis (Test Example 7, closed duodenal loop method, gross pathological examination). The conditions noted are these: 50 mg per kg continuous intravenous injection, examination 6 hours after ventrotomy, individual rats. The format is in vivo, Crj-CD male rats. On the set-up: key to Pancreatic edema Distribution: -: No significant lesions; ± ∼ +++: Focal-diffuse; ± ∼ +++: Focal-diffuse; ± ∼ +++: Focal-diffuse; ± ∼ +++: Focal-diffuse; key to Pancreatic hemorrhage Petechia Grade / Pancreatic edema Grade: -: No significant lesions; ±: Minimal; +: Light; ++: Moderate; +++: Marked. How it is done: (§1) Using Crj-CD male rats (for Compound No. 19, rats having a body weight of from 371 to 484 g were used, and for Compound No. 10, rats having a body weight of from 444 to 574 g were used), each test group consisted of 3 rats. An experimental acute pancreatitis model was prepared by a closed duodenal loop method under anesthesia with halothane (manufactured by Hoechst Japan) and nitrous oxide (manufactured by Sumitomo Seika K.K.) applied by means of a general inhalation anesthesia machine (Model EM-2 and halothane evaporator F-Model). Then, Compound No. 19 or Compound No. 10 was continuously intravenously injected into the tail vein in an amount of 50 mg per kg or 40 mg per kg, respectively, at a rate of 0.05 ml per minute by means of a pump (Technicon AA II Proportioning Pump III, manufactured by Technicon Instruments Corporation). No injection was made to a control group. Gross pathological examination was conducted upon expiration of 6 hours after the ventrotomy in the case of the test group to which Compound No. 19 was administered, or upon expiration of 3 hours after the ventrotomy in the case of the test group to which Compound No. 10 was administered. As a result, as shown in the following Table 12, the groups to which the compounds of the present invention were administered, show distinct usefulness for treating acute pancreatitis.

For data set [6] the test system is unchanged. The data set is described as above. Format: in vivo, Crj-CD male rats. On the set-up: key: -: No significant lesions; ±: Minimal; +: Light; ++: Moderate; +++: Marked. To be noted: 50 mg per kg continuous intravenous injection, examination 6 hours after ventrotomy, individual rats. How it is done: as §1
For data set [7], the system named is increased vascular permeability induced by acetic acid. In words: Inhibitory activity on increased vascular permeability induced by acetic acid (Mouse Whittle method, method C). The format is in vivo, ddy male mice. To be noted: dose 20 mg/kg orally, amount of leaked dye. As to the method: Using ddy male mice, each test group consisted of 4 or 5 mice. A test compound was mixed with Tween 80 [polyoxyethylenesorbitan monooleate (manufactured by Nacalai Tesque K.K.)], and distilled water was added thereto to obtain a 2% Tween 80 suspension, or it was dissolved in the form of a salt in water to obtain an aqueous solution. A test compound was orally administered, and upon expiration of one hour from the administration, 0.7% acetic acid was intraperitonially injected to each mouse in an amount of 0.1 ml/10 g, and at the same time, 2% brilliant blue was intravenously injected into the tail vein in an amount of 0.1 ml/20 g. Thirty minutes after the injection of brilliant blue, the cervical vertebrae were dislocated under anesthesia by chloroform, and the abdorminal cavity was washed with 5 ml of a physiological saline. The washing solution was subjected to centrifugal separation at 3,000 rpm for 10 minutes, and the amount of the dye in the supernatant was measured at 600 nm absorbance by Microplate ELISA Reader (Model 2550EIA Reader, manufactured by Bio-Rad Laboratories). The inhibition rate of the amount of leaked dye in the group in which a test compound was administered relative to the control group was obtained by the following formula. Inhibition rate (%) = (l -(C)/(D)) x 100 [formula] • C: Amount of leaked dye in the group to which a test compound was administered. • D: Amount of leaked dye in the control group.

For data set [8] the test system is unchanged. In words: Inhibitory activity on increased vascular permeability induced by acetic acid (Rat Whittle method, method D). The format is in vivo, SD (Crj: CD) male rats. To be noted: dose 50 mg/kg orally, amount of leaked dye. As to the method:
Using SD (Crj: CD) male rats, each test group consisted of from 3 to 5 rats. A test compound was mixed with Tween 80 [polyoxyethylenesorbitan monooleate (manufactured by Nacalai Tesque K.K.)], and distilled water was added thereto to obtain a 2% Tween 80 suspension, or it was dissolved in the form of a salt in water to obtain an aqueous solution. A test compound was orally administered, and one hour later, 0.7% acetic acid was intraperitonially injected to each rat in an amount of 0.05 ml/10 g, and at the same time, 2% brilliant blue was intravenously injected into the tail vein in an amount of 0.05 ml/20 g. Thirty minutes after the injection of brilliant blue, the cervical vertebrae were dislocated under anesthesia by chloroform, and the abdorminal cavity was washed with 10 ml of a physiological saline. The washing solution was subjected to centrifugal separation at 3,000 rpm for 10 minutes, and the amount of the dye in the supernatant was measured at 600 nm absorbance by Microplate ELISA Reader (Model 2550EIA Reader, manufactured by Bio-Rad Laboratories). The inhibition rate of the amount of leaked dye in the group to which a test compound was administered relative to the control group was obtained from the following formula, and the results are shown in Table 9. Inhibition rate (%) = (l -(C)/(D)) x 100 [formula] • C: Amount of leaked dye in the group to which a test compound was administered. • D: Amount of leaked dye in the control group.

Data set [9] concerns experimental acute pancreatitis model. As to the kind of experiment: Effects against acute pancreatitis (Test Example 8, closed duodenal loop method, lesion scores). Format: in vivo, Crj-CD male rats. The conditions noted are these: 24 mg/kg continuous intravenous injection, sodium salt, 6 hours after ventrotomy. The method, boiled down:
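Closed duodenal loop pancreatitis in male Crj-CD rats (n=3) under halothane/nitrous oxide; sodium-salt compounds given i.v. into tail vein by continuous infusion or bolus, controls untreated. At 6 h, four pancreatic lesions scored 0-3; inhibition % of total and hemorrhagic scores calculated versus control.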

Several values for one entry are separate records, joined by “and”; a condition that tells them apart may be missing. Equal entries are not always repeated. Bounds are passed on as bounds.

T1 sequence (P00592 23-146): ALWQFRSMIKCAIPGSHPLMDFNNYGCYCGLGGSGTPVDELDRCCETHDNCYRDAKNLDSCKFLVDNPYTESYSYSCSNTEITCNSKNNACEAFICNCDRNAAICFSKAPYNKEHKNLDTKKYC

A word on the inhibition: it is the drop in the measured response relative to a control, in per cent. As a reminder, the LD50 is the dose expected to kill half of the subjects tested. Turning to `CCS(=O)(=O)Nc1ncc(C(F)(F)F)cc1NC(=O)C(F)(F)C(F)(F)F` [Compound No. 19, N-(2-ethylsulfonylamino-5-trifluoromethyl-3-pyridyl)pentafluoropropionamide], in data set [1], the inhibition at 1000 ppm is over 90%. For the same molecule, the inhibition at 1000 ppm in [2] was 75%. Also, the inhibition in vivo at 100 mg/kg in data set [3] (po, 3 h, dose 100 mg/kg orally, read-out: Inhibition rate (%)) came to 31%. For the same molecule, the LD50 at 168 h in data set [4] fell in the range of 50 to 100 mg/kg. Further, in data set [5], the “Pancreatic edema Distribution” value is “+ (2×) and ††”; the “Pancreatic edema Grade” value was “+ (2×) and ††”; the “Pancreatic hemorrhage Petechia Grade” value is reported as “-”. Moreover, in data set [6], the “Pancreatic hemorrhage Petechia Distribution” value is “-”.
With `CS(=O)(=O)Nc1ncc(C(F)(F)F)cc1NC(=O)c1cccs1` [compound 120], the “Inhibition rate (%)” value in data set [7] is 43%; in data set [8], 35%; in data set [3] (dose 50 mg/kg orally), 27%. In addition, in data set [4], the LD50 at 168 h was found to be 83 mg/kg. Moreover, the “Inhibition rate of hemorrhagic lesions (%)” value in data set [9] was 100%.
